In patent US9765067B2, “Thiophen-2-yl-pyridin-2-yl-1H-pyrazole-4-carboxylic acid derivatives and the use thereof as soluble guanylate cyclase activators” (Novartis AG, priority 2014, dated 2017) one finds EC50 data, which are given here for 18 compounds.

For the test, the target named is T1, soluble guanylate cyclase (human GUCYA3/GUCYB3) overexpressed in CHO cells (Homo sapiens, UniProt Q02108+Q02153).
T1 construct: expressed in transfected cells
T1 sequence (Q02108 1-690 partner): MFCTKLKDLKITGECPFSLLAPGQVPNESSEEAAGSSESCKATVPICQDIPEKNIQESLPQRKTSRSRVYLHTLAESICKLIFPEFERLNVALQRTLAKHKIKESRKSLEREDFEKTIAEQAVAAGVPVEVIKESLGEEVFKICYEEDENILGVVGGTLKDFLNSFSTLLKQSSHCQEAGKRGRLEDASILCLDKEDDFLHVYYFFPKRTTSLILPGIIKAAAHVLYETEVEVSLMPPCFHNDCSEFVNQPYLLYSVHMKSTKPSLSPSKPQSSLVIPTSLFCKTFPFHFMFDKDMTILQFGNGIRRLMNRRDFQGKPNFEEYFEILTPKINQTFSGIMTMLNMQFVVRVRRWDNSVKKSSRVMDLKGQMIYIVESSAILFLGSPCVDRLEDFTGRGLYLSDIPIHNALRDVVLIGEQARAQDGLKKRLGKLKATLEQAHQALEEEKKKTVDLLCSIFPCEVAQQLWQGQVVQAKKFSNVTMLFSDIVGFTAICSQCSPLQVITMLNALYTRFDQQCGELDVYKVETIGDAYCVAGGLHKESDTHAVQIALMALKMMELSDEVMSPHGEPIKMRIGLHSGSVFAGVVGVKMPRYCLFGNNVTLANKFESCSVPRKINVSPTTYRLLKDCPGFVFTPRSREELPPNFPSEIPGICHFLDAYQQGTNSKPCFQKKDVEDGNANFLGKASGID
T1 sequence (Q02153 1-619): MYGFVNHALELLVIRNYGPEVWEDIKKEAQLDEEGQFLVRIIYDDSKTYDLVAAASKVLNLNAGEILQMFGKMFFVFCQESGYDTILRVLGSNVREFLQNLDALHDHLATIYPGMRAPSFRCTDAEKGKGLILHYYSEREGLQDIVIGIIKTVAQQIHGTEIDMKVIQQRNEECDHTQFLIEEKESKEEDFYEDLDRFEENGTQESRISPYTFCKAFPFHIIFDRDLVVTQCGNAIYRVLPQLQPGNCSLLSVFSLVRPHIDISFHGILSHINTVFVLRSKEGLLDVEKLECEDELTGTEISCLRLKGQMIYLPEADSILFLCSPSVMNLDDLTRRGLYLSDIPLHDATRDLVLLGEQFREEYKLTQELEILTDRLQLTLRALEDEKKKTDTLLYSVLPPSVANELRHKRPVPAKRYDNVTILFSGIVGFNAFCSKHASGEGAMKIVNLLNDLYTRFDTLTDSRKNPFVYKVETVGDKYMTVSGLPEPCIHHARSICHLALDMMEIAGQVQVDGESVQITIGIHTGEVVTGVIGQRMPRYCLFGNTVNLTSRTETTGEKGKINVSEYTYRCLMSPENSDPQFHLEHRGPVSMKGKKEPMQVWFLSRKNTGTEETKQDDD
Nature of the test: CHO cellular assay (cGMP production, HTRF). It is filed as cell-based. The conditions noted are these: CHO K1 clone 8E10 overexpressing human sGC, Cisbio HTRF, 1 h room temperature, 1 mM IBMX, 20 uM ODQ, minimum quantification limit 0.5 nM. The source says: Chinese hamster ovary (CHO) cells overexpressing soluble guanylate cyclase were generated to test the effect of sGC activators in a cellular context. Human cDNAs for GUCYA3 (RefSeq: NM_000856.3) and GUCYB3 (RefSeq: NM_000857.1) were amplified by PCR from a HUVEC (Human Umbilical Vein Endothelial Cells) cDNA library and cloned into mammalian expression vectors. CHO K1 cells (ATCC CCL-61) were transfected using Lipofectamine 2000 following manufacturer's instructions and stably expressing clones were identified by antibiotic selection. CHO GUCY clone 8E10 was used for subsequent experiments.
Cells were seeded at a density of 3000 cells/well in white 384-well proxyplates (Perkin Elmer) and incubated overnight, then the medium was removed and cells were washed with assay buffer (HBSS, 0.1% BSA, 1 mM IBMX, 20 uM ODQ). sGC activators were serially diluted in DMSO, then diluted in assay buffer prior to adding to cells (10 ul/well, final DMSO concentration 0.5%). Cells were incubated with compounds for 1 h room temperature, then assayed for cGMP production using Cisbio cGMP HTRF kit (62GM2PEC) according to manufacturer's instructions.
The EC50s are calculated based on the amount of cGMP interpolated from the standard curve, using a 4-parameter sigmoidal dose-response.

Some results are limits rather than exact numbers.

The compound `CCc1cc(COc2ccc(C3CCN(CC(F)(F)F)CC3)cc2C)c(-c2cccc(-n3ncc(C(=O)O)c3C(F)(F)F)n2)s1` [Example 6-17, 1-(6-(5-Ethyl-3-((2-methyl-4-(1-(2,2,2-trifluoroethyl)piperidin-4-yl)phenoxy)methyl)thiophen-2-yl)pyridin-2-yl)-5-(trifluoromethyl)-1H-pyrazole-4-carboxylic acid] registered an EC50 of 14 nM.
For `CCc1c(C)sc(-c2cccc(-n3ncc(C(=O)O)c3C(F)(F)F)n2)c1COc1ccc(C2CCN(CC(F)(F)F)CC2)cc1C` [Example 6-18, 1-(6-(4-Ethyl-5-methyl-3-((2-methyl-4-(1-(2,2,2-trifluoroethyl)piperidin-4-yl)phenoxy)methyl)thiophen-2-yl)pyridin-2-yl)-5-(trifluoromethyl)-1H-pyrazole-4-carboxylic acid], the concentration for a half-maximal effect (EC50) was 2.4 nM.
Compound `O=C(O)c1cnn(-c2cccc(-c3sccc3COc3ccc(C4CCN(C(=O)C5CC5)CC4)cn3)n2)c1C(F)(F)F` [Example 6-19, 1-(6-(3-(((5-(1-(Cyclopropanecarbonyl)piperidin-4-yl)pyridin-2-yl)oxy)methyl)thiophen-2-yl)pyridin-2-yl)-5-(trifluoromethyl)-1H-pyrazole-4-carboxylic acid] displayed an EC50 of 2 nM.
To `CCC(=O)N1CCC(c2ccc(OCc3ccsc3-c3cccc(-n4ncc(C(=O)O)c4C(F)(F)F)n3)c(Cl)c2)CC1` [Example 7, 1-(6-(3-((2-Chloro-4-(1-propionylpiperidin-4-yl)phenoxy)methyl)thiophen-2-yl)pyridin-2-yl)-5-(trifluoromethyl)-1H-pyrazole-4-carboxylic acid] belongs at most 0.5 nM.
`O=C(O)c1cnn(-c2cccc(-c3sccc3COc3ccc(C4CCN(C(=O)C5CC5)CC4)cc3Cl)n2)c1C(F)(F)F` [Example 8, 1-(6-(3-((2-Chloro-4-(1-(cyclopropanecarbonyl)piperidin-4-yl)phenoxy)methyl)thiophen-2-yl)pyridin-2-yl)-5-(trifluoromethyl)-1H-pyrazole-4-carboxylic acid] came in with an EC50 of at most 0.5 nM.
Compound `Cc1cc(C2CCN(C(=O)C3CC3)CC2)ccc1OCc1ccsc1-c1cccc(-n2ncc(C(=O)O)c2C)n1` [Example 9, 1-(6-(3-((4-(1-(Cyclopropanecarbonyl)piperidin-4-yl)-2-methylphenoxy)methyl)thiophen-2-yl)pyridin-2-yl)-5-methyl-1H-pyrazole-4-carboxylic acid] had a 50% effective concentration (EC50) of at most 0.5 nM.
As for `CCc1cc(OCc2ccsc2-c2cccc(-n3ncc(C(=O)O)c3C)n2)ccc1C1CCN(C(=O)C2CC2)CC1` [Example 10-1, 1-(6-(3-((4-(1-(Cyclopropanecarbonyl)piperidin-4-yl)-3-ethylphenoxy)methyl)thiophen-2-yl)pyridin-2-yl)-5-methyl-1H-pyrazole-4-carboxylic acid], the EC50 is at most 0.5 nM.
`CCc1cc(OCc2ccsc2-c2cccc(-n3ncc(C(=O)O)c3CC)n2)ccc1C1CCN(C(=O)C2CC2)CC1` [Example 10-2, 1-(6-(3-((4-(1-(Cyclopropanecarbonyl)piperidin-4-yl)-3-ethylphenoxy)methyl)thiophen-2-yl)pyridin-2-yl)-5-ethyl-1H-pyrazole-4-carboxylic acid]: the EC50 was at most 0.5 nM.
To `Cc1cc(COc2ccc(C3CCN(C(=O)C4CC4)CC3)cc2C)c(-c2cccc(-n3ncc(C(=O)O)c3C)n2)s1` [Example 10-3, 1-(6-(3-((4-(1-(Cyclopropanecarbonyl)piperidin-4-yl)-2-methylphenoxy)methyl)-5-methylthiophen-2-yl)pyridin-2-yl)-5-methyl-1H-pyrazole-4-carboxylic acid] belongs at most 0.5 nM.
The compound `CCc1cc(OCc2cc(C)sc2-c2cccc(-n3ncc(C(=O)O)c3C)n2)ccc1C1CCN(C(=O)C2CC2)CC1` [Example 10-4, 1-(6-(3-((4-(1-(Cyclopropanecarbonyl)piperidin-4-yl)-3-ethylphenoxy)methyl)-5-methylthiophen-2-yl)pyridin-2-yl)-5-methyl-1H-pyrazole-4-carboxylic acid] yielded an EC50 of at most 0.5 nM.
Take `CCc1cc(OCc2c(C)csc2-c2cccc(-n3ncc(C(=O)O)c3C(F)(F)F)n2)ccc1C1CCN(C(=O)C2CC2)CC1` [Example 10-5, 1-(6-(3-((4-(1-(Cyclopropanecarbonyl)piperidin-4-yl)-3-ethylphenoxy)methyl)-4-methylthiophen-2-yl)pyridin-2-yl)-5-(trifluoromethyl)-1H-pyrazole-4-carboxylic acid]: the EC50 is at most 0.5 nM.
Consider `CCc1c(C(=O)O)cnn1-c1cccc(-c2sc(C)c(C)c2COc2ccc(C3CCN(C(=O)C4CC4)CC3)cc2C)n1` [Example 10-6, 1-(6-(3-((4-(1-(Cyclopropanecarbonyl)piperidin-4-yl)-2-methylphenoxy)methyl)-4,5-dimethylthiophen-2-yl)pyridin-2-yl)-5-ethyl-1H-pyrazole-4-carboxylic acid], for which the half-maximal effective concentration (EC50) is at most 0.5 nM.
To `Cc1c(OCc2ccsc2-c2cccc(-n3ncc(C(=O)O)c3C(F)(F)F)n2)ccc2c1CCN(Cc1ccccn1)C2` [Example 10-7, 1-(6-(3-(((5-Methyl-2-(pyridin-2-ylmethyl)-1,2,3,4-tetrahydroisoquinolin-6-yl)oxy)methyl)thiophen-2-yl)pyridin-2-yl)-5-(trifluoromethyl)-1H-pyrazole-4-carboxylic acid] belongs 37 nM; to `Cc1cc(C2CCN(C(=O)C3CC3)CC2)ccc1OC(C)c1ccsc1-c1cccc(-n2ncc(C(=O)O)c2C(F)(F)F)c1` (stereo not drawn) [Example 10-8, 1-(3-(3-(1-(4-(1-(Cyclopropanecarbonyl)piperidin-4-yl)-2-methylphenoxy)ethyl)thiophen-2-yl)phenyl)-5-(trifluoromethyl)-1H-pyrazole-4-carboxylic acid], 15 nM; to `Cc1cc(C2CCN(CC(F)(F)F)CC2)ccc1OCc1c(C)csc1-c1cccc(-n2ncc(C(=O)O)c2C(F)(F)F)n1` [Example 10-9, 1-(6-(4-methyl-3-((2-methyl-4-(1-(2,2,2-trifluoroethyl)piperidin-4-yl)phenoxy)methyl)thiophen-2-yl)pyridin-2-yl)-5-(trifluoromethyl)-1H-pyrazole-4-carboxylic acid], 57 nM.
On to `Cc1cc(C2CCN(C(=O)CC3CC3)CC2)ccc1OCc1ccsc1-c1cccc(-n2ncc(C(=O)O)c2C(F)(F)F)n1` [Example 11, 1-(6-(3-((4-(1-(2-Cyclopropylacetyl)piperidin-4-yl)-2-methylphenoxy)methyl)thiophen-2-yl)pyridin-2-yl)-5-(trifluoromethyl)-1H-pyrazole-4-carboxylic acid], for which the response was half-maximal at 2 nM (EC50).
As to `Cc1cc(C2CCN(C(=O)C3CCC3)CC2)ccc1OCc1ccsc1-c1cccc(-n2ncc(C(=O)O)c2C(F)(F)F)n1` [Example 12-1, 1-(6-(3-((4-(1-(Cyclobutanecarbonyl)piperidin-4-yl)-2-methylphenoxy)methyl)thiophen-2-yl)pyridin-2-yl)-5-(trifluoromethyl)-1H-pyrazole-4-carboxylic acid], the concentration for a half-maximal effect (EC50) is at most 0.5 nM.
For the compound `Cc1cc(C2CCN(C(=O)C3CC3)CC2)ccc1OCc1ccsc1-c1cccc(-n2ncc(C(=O)O)c2C(F)(F)F)n1` [Example 12-2, 1-(6-(3-((4-(1-(Cyclopropanecarbonyl)piperidin-4-yl)-2-methylphenoxy)methyl)thiophen-2-yl)pyridin-2-yl)-5-(trifluoromethyl)-1H-pyrazole-4-carboxylic acid], the concentration for a half-maximal effect (EC50) was 4.5 nM.
